16 compounds from US8895744B2, “Alfa-carboline inhibitors of NPM-ALK, RET, and Bcr-Abl” (Universita' Degli Studi di Milano-Bicocca, priority 2008, dated 2014) can be followed below.

The structures appear in SMILES notation.

The target in series [1] is T1, Recombinant Abl T315I protein (Homo sapiens, UniProt P00519, T315I).
T1 construct: made in house; host or cells: Sf9 cells (baculovirus)
The series is described as follows: Abl T315I mutant kinase inhibitory activity, ELISA-based in vitro kinase assay. The settings on record: purified Abl T315I, 0.3 mM ATP. It counts as biochemical. On the procedure:
(§1) Recombinant ALK kinase was expressed in Sf9 insect cells using the pBlueBacHis2C baculovirus vector system and purified using an anion exchange Fast Flow Q-sepharose column (Amersham-Pharmacia Biotech) followed by HiTrap™-nickel affinity column (Amersham-Pharmacia Biotech). Purified ALK protein was used to screen inhibitors in the ELISA-based kinase assay. A Nunc Immuno 96 well plate was incubated overnight at 37° C. with coating solution (125 μL/well) containing ALK peptide substrate ([…]) (SEQ ID NO: 1) at various concentrations in PBS. Wells were then washed with 200 μL of wash buffer (PBS-Tween 0.05%) and left to dry for at least 2 h at 37° C. The kinase reaction was performed in the presence of 50 mM Tris pH 7.5, 5 mM MnCl2, 5 mM MgCl2, 0.3 mM ATP and purified rALK in a total volume of 100 μL/well at 30° C. for 15 min. For inhibitor testing the reaction mix was preincubated with the inhibitor or solvent control for 10 min at room temperature before transferring to the ELISA plate. After the reaction wells were washed 5 times with 200 μL of wash buffer. Phosphorylated peptide was detected using 100 μL/well of a mouse monoclonal anti-phosphotyrosine antibody (clone 4G10 Upstate Biotech Ltd) diluted 1:2000 in PBS+4% BSA. After 30 min incubation at room temperature the antibody was removed and wells were washed as described above. 100 μL of a secondary antibody (anti-mouse IgG, Horseradish Peroxidase linked whole antibody, Amersham Pharmacia Biotech) diluted 1:1000 in PBS+4% BSA was added to each well and the plate was incubated again for 30 min at room temperature before washing as above. The plate was developed using 100 μL/well TMB Substrate Solution (Endogen) and the reaction was stopped by adding an equiv.ual volume of H2SO4 0.36 M. Finally, the absorbance was read at 450 nm using an Ultrospec® 300 spectrophotometer (Amersham-Pharmacia Biotech). The concentration of the test solution showing 50% inhibition as compared with the control was expressed as IC50 (μM).
37. Abl T315I Mutant Kinase Inhibitory Activity
(§2) Method: ELISA-Based In Vitro Kinase Assay
(§3) Recombinant Abl T315I protein was expressed in Sf9 cells using the pBlueBacHis2C baculovirus expression vector. Abl T315I was purified using an anion exchange Fast Flow Q-sepharose column (Amersham-Pharmacia Biotech) followed by HiTrap™-nickel affinity column (Amersham-Pharmacia Biotech). Purified Abl T315I was used in the ELISA-based kinase assay to screen inhibitors as described above. The kinase reaction was performed in the presence of 50 mM Tris pH 7.5, 1 mM MnCl2, 5 mM MgCl2, 0.3 mM ATP, peptide substrate ([…]) (SEQ ID NO: 1) and purified Abl T315I. The concentration of the test solution showing 50% inhibition as compared with the control was expressed as IC50 (μM).

A further series concerns the target T2, Recombinant ALK kinase (Homo sapiens, UniProt Q9UM73).
T2 construct: made in house; host or cells: Sf9 insect cells (baculovirus)
The series is described as follows: ALK kinase inhibitory activity, ELISA-based in vitro kinase assay. The series is classed as biochemical. The settings on record: purified rALK, 0.3 mM ATP, read-out: ALK IC50. On the procedure: 36. Alk Kinase Inhibitory Activity
as §2, §1

For another series, the target named is T3, Recombinant Ret protein (Homo sapiens, UniProt P07949).
T3 construct: made in house; host or cells: Sf9 cells (baculovirus)
T3 sequence (P07949 29-1114): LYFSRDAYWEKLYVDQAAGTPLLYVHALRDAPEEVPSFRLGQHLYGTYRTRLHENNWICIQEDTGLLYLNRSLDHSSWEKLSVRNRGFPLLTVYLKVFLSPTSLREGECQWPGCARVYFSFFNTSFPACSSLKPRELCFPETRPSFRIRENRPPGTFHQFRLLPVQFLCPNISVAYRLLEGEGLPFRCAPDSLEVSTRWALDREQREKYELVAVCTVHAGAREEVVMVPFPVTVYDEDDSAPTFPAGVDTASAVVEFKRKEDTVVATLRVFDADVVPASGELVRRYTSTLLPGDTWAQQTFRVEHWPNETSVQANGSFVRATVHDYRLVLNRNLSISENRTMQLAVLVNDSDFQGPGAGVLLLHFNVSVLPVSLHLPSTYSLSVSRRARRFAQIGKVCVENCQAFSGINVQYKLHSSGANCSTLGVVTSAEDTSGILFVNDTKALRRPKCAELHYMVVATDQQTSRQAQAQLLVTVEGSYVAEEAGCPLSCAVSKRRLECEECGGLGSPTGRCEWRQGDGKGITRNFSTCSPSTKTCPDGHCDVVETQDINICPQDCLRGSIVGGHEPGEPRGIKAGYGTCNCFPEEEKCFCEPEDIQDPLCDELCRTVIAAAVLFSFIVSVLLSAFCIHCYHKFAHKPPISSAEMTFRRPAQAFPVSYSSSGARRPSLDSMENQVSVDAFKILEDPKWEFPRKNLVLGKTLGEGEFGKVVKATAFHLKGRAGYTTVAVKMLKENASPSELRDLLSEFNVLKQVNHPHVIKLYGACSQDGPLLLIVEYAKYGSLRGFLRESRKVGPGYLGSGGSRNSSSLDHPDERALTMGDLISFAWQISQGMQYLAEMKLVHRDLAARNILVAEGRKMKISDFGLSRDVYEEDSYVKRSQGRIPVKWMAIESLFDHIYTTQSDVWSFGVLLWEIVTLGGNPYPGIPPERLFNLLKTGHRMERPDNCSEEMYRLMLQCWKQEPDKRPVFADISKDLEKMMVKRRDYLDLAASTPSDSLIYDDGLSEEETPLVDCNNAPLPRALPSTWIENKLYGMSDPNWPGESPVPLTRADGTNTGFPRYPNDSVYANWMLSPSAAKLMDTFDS
As to the kind of experiment: RET kinase inhibitory activity, ELISA-based in vitro kinase assay. The settings on record: purified Ret, 0.3 mM ATP. The series is classed as biochemical. Here is the method: as §1
38. RET Kinase Inhibitory Activity
as §2
as §3, with “Ret” for “Abl T315I”, “Ret.” for “Abl T315I.”
In general terms: An ELISA detects its analyte on a solid surface through an enzyme-linked reagent.

The test system of series [2] is parent untransformed BaF3 cells. As to the kind of experiment: Tritiated thymidine uptake cell proliferation assay, parental BaF3 (control). It counts as cell-based. The settings on record: Mus musculus, 3[H]-thymidine uptake, 72 h, medium with IL-3, read-out: BaF parental IC50. On the procedure: (§4) Method: Tritiated Thymidine Uptake Cell Proliferation Assay
(§5) The following procedure was used with parent untransformed BaF3 cells, BaF3 cells transformed with the oncogenic fusion protein NPM/ALK, NPM/ALK positive SUDHL-1 cells, ALK-negative U937 cells, NPM/ALK positive KARPAS-299 cells. The parent untransformed BaF3 cells and Alk-negative U937 cells are used as controls. Cells were seeded in U-bottomed 96-well plates at 10 000 cells/well in a volume of 100 μL in supplemented medium. In the case of the parent untransformed BaF3 cells, the medium was supplemented with IL-3. Serial dilutions of inhibitors were added to the appropriate wells and volumes adjusted to 200 μL. Controls were treated with the equivalent volume of vehicle, DMSO, alone. Plates were incubated at 37° C. for 72 h. ^3[H]-thymidine (1 μCi/well) was added for the last 16 h of incubation. Cells were harvested on to paper filters and ^3[H]-thymidine incorporation was measured using a β scintillation counter (1430 MicroBeta, Wallac, Turku, Finland). The 50% inhibitory concentration (IC50) was defined as the concentration of inhibitor, expressed in micromolar, that gave a 50% decrease in ^3[H]-thymidine uptake compared with controls.
as §5, with “protein bcr-abl, Abl-negative” for “protein NPM/ALK, NPM/ALK positive SUDHL-1 cells, ALK-negative”, “cells, or Bcr-abl” for “cells, NPM/ALK”, “positive LAMA-84” for “positive KARPAS-299”, “and Abl-negative” for “and Alk-negative”, “in ^3H-thymidine” for “in ^3[H]-thymidine”
as §5, with “RET-PTC2, or RET-negative 11937” for “NPM/ALK, NPM/ALK positive SUDHL-1 cells, ALK-negative U937 cells, NPM/ALK positive KARPAS-299”, “RET-negative” for “Alk-negative”

Series [3] has as its system NPM/ALK positive SUDHL-1 cells. As to the kind of experiment: Tritiated thymidine uptake cell proliferation assay, SUDHL-1. The series is classed as cell-based. Particulars: 3[H]-thymidine uptake, 72 h. Here is the method:
(§6) Inhibition of the proliferation of NPM/ALK positive cells
as §4, §5

The target in series [4] is T4, BaF3 cells transformed with the oncogenic fusion protein NPM/ALK (Homo sapiens, UniProt Q9UM73).
T4 construct: fused on or other part: P06748 (Nucleophosmin)
T4 sequence (Q9UM73 whole entry, change not shown, the tested form may be a part): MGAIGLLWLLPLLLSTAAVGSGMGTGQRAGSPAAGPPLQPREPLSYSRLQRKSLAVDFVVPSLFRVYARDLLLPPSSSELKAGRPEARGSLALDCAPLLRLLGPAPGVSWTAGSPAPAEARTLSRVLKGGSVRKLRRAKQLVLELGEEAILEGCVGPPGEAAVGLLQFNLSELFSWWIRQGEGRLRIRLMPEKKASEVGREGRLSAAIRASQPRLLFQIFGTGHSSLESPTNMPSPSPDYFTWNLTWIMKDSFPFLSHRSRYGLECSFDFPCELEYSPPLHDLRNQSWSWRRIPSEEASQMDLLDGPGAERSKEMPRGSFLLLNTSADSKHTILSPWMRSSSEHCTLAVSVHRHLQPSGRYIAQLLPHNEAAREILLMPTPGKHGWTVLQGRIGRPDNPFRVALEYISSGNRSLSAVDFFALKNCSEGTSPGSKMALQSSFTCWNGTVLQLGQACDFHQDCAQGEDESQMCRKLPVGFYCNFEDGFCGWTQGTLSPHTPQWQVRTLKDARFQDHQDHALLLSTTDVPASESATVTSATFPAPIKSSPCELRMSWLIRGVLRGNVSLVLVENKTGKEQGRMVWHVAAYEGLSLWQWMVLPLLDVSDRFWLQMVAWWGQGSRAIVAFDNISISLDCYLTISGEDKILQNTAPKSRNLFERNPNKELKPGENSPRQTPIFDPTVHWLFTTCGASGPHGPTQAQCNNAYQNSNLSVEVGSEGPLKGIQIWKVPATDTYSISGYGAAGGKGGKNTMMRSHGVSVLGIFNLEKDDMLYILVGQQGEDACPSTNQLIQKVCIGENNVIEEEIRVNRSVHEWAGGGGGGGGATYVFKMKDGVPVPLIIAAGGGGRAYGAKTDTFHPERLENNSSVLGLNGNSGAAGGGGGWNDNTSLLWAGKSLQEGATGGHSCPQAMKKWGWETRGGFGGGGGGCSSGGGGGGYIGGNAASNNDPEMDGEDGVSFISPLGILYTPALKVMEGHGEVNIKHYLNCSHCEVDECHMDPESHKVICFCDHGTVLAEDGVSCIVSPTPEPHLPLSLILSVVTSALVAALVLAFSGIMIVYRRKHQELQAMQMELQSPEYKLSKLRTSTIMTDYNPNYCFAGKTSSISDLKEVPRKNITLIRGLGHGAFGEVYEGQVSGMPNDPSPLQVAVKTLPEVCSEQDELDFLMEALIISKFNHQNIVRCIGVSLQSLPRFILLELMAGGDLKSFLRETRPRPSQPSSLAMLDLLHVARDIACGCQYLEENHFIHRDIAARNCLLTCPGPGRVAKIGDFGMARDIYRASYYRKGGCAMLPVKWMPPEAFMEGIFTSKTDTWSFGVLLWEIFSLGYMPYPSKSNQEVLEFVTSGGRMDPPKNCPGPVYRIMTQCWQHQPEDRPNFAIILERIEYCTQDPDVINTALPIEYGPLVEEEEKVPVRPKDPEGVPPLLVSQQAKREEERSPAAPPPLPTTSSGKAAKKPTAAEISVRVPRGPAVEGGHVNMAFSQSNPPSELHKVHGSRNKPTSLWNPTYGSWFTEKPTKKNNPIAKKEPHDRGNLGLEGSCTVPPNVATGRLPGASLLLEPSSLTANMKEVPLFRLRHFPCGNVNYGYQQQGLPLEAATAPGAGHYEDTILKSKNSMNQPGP
As to the kind of experiment: Tritiated thymidine uptake cell proliferation assay, BaF3 NPM/ALK. It counts as cell-based. Particulars: 3[H]-thymidine uptake, 72 h; read-out: BaF NPM/ALK IC50. Here is the method:
as §6, §4, §5

T2 sequence (Q9UM73 19-1620): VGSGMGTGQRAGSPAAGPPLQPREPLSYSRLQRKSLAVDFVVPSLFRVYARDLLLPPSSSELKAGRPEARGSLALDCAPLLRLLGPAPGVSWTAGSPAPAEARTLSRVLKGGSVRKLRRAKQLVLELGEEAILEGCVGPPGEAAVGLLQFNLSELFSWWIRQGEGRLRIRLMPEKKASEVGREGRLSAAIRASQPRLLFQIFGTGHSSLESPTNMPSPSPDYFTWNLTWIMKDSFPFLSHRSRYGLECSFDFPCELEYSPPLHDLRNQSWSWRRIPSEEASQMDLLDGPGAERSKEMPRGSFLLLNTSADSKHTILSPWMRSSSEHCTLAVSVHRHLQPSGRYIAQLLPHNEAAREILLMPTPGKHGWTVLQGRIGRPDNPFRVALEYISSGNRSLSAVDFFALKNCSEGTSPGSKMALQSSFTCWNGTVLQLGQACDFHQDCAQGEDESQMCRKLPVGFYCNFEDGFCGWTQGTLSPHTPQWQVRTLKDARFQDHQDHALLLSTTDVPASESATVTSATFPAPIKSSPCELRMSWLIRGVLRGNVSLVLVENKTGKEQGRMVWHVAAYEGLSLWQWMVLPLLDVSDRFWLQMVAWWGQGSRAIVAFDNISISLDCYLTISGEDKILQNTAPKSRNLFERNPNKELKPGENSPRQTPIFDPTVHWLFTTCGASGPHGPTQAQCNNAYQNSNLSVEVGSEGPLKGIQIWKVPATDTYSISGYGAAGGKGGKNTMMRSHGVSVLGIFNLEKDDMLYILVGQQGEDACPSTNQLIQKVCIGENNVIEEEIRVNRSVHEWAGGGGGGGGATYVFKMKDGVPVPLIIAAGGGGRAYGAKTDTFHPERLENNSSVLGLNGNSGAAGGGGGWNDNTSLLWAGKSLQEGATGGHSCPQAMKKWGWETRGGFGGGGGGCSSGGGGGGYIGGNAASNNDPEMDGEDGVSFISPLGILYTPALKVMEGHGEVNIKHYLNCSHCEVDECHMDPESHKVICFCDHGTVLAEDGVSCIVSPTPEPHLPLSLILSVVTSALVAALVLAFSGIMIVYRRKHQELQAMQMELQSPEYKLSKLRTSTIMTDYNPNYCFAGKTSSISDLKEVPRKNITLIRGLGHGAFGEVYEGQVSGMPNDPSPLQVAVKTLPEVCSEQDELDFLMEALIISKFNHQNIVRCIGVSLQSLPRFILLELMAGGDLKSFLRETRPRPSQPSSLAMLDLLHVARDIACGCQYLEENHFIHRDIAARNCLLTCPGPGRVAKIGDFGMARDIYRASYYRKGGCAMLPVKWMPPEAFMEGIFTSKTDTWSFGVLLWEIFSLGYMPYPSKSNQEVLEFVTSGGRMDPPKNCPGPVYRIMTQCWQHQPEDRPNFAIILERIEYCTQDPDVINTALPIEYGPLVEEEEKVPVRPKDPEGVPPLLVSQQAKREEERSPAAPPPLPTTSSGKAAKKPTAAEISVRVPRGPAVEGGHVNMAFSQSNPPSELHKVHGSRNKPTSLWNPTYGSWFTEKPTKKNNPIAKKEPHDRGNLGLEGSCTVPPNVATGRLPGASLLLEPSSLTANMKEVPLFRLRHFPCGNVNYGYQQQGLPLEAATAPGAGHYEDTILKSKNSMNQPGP

With `O=c1[nH]c(-c2ccc3[nH]c4ncccc4c3c2)cs1` [R221, 4-(9H-pyrido[2,3-b]indol-6-yl)thiazol-2(3H)-one], the IC50 in series [1] is 53 ± 16 µM; at Recombinant ALK kinase, 19 ± 1.8 µM; at Recombinant Ret protein, 82 ± 3.2 µM.

Take `O=Cc1ccc2[nH]c3ncc(Cl)cc3c2c1` [R267]: the IC50 in series [2] was determined as 17 µM; in series [3], 9.4 µM; in series [1], 20 ± 0.67 µM; at Recombinant Ret protein it was 34 ± 27 µM.

For the compound `O=C(CSc1ccccn1)c1ccc2[nH]c3ncc(Cl)cc3c2c1` [R272, 1-(3-Chloro-9H-pyrido[2,3-b]indol-6-yl)-2-(pyridin-2-ylsulfanyl)ethanone], the IC50 in series [2] was 2 µM; in series [3], above 25 µM; in series [1], 41 µM; on Recombinant Ret protein it was 19 µM. For the same compound, the GI50 in series [4] was 2.5 µM.

For the compound `Oc1cnc2[nH]c3ccc(CCc4ccccc4)cc3c2c1` [R276], the IC50 is above 25 µM in series [2], 0.5 ± 0.1 µM on Recombinant ALK kinase and 1 µM on Recombinant Ret protein. The GI50 in series [4] was above 25 µM.

On to `O=C(CSc1cccc(Br)c1)c1ccc2[nH]c3ncc(Cl)cc3c2c1` [R279, 2-(3-Bromophenylsulfanyl)-1-(3-chloro-9H-pyrido[2,3-b]indol-6-yl)ethanone], for which the IC50 in series [2] was above 50 µM; in series [1], above 100 µM; on Recombinant Ret protein it was 3.6 µM. Besides, the GI50 in series [4] was above 50 µM.

Turning to `O=C(CSCCOc1ccccc1)c1ccc2[nH]c3ncc(Cl)cc3c2c1` [R280, 1-(3-Chloro-9H-pyrido[2,3-b]indol-6-yl)-2-(2-phenoxyethylsulfanyl)ethanone], the IC50 is 37 µM in series [2], 33 µM in series [1] and 3.6 µM on Recombinant Ret protein. In addition, the GI50 in series [4] is above 50 µM.

Take `CN(C)CCSCC(=O)c1ccc2[nH]c3ncc(Cl)cc3c2c1` [R284, 1-(3-Chloro-9H-pyrido[2,3-b]indol-6-yl)-2-(2,2-dimethylaminoethylsulfanyl)ethanone]: the IC50 in series [1] was above 100 µM; at Recombinant ALK kinase, 36 ± 14 µM; on Recombinant Ret protein, 41 µM.

For the compound `C(=C\c1cnc2[nH]c3ccc(-c4ccc(N5CCOCC5)cn4)cc3c2c1)/c1ccccc1` [R307, 6-(5-morpholin-4-yl-pyridin-2-yl)-3-(2′-phenylethenyl)-9H-pyrido[2,3-b]indole], the 50% inhibitory concentration (IC50) in series [2] was above 100 µM; in series [1] it was 3.1 ± 0.1 µM; at Recombinant ALK kinase it was 0.5 ± 0.1 µM; on Recombinant Ret protein it was above 100 µM. Moreover, in series [4], the GI50 is 40 µM.

`COc1ccc(-c2ccnc3[nH]c4ccccc4c23)cc1` [R309, 4-(4-methoxyphenyl)-9H-pyrido[2,3-b]indole] gave a melting point of 208 to 210 °C. Also, in series [2], the IC50 is 15 µM. The GI50 in series [4] worked out at 25 µM. In addition, the IC50 in series [1] stood at 1.6 µM. Besides, the IC50 on Recombinant ALK kinase turned out to be 4 ± 0.2 µM.

`c1coc(-c2ccc3c(n2)[nH]c2ccccc23)c1` [R326, 2-(furan-2-yl)-9H-pyrido[2,3-b]indole] had a melting point of 208 to 210 °C. The IC50 in series [2] amounted to 8.8 µM. The GI50 in series [4] was found to be 19 µM.

`c1coc(-c2ccnc3[nH]c4ccccc4c23)c1` [R327, 4-(furan-2-yl)-9H-pyrido[2,3-b]indole] showed a melting point above 220 °C. In series [2], the IC50 was above 100 µM. Also, the GI50 in series [4] stood at 26 µM.

`O=[N+]([O-])c1cccc(-c2ccnc3[nH]c4ccccc4c23)c1` [R331, 4-(3-nitrophenyl)-9H-pyrido[2,3-b]indole] had a melting point above 220 °C. For the same compound, in series [2], the IC50 was above 100 µM. Besides, the GI50 in series [4] was 40 µM. The IC50 at Recombinant ALK kinase is above 100 µM.

The compound `COc1ccc(-c2ccc3c(c2)c2c(-c4ccc(OC)cc4)ccnc2n3S(=O)(=O)c2ccccc2)cc1` [compound 37, 9-benzenesulfonyl-4,6-di(4-methoxyphenyl)-9H-pyrido[2,3-b]indole] returned a melting point of 162 to 164 °C.

Compound `COc1ccc(-c2ccc3c(c2)c2ccc(/C=C/c4ccccc4)nc2n3S(=O)(=O)c2ccccc2)cc1` [compound 43, 9-benzenesulfonyl-6-(4-methoxyphenyl)-2-(2′-phenylethenyl)-9H-pyrido[2,3-b]indole] had a melting point of 193 to 195 °C.

On to `COc1ccc(-c2ccc3c(c2)c2c(/C=C/c4ccccc4)ccnc2n3S(=O)(=O)c2ccccc2)cc1` [compound 45, 9-benzenesulfonyl-6-(4-methoxyphenyl)-4-(2′-phenylethenyl)-9H-pyrido[2,3-b]indole], for which the melting point was 190 to 192 °C.

Take `O=S(=O)(c1ccccc1)n1c2ccc(CCc3ccccc3)cc2c2cc(Cl)cnc21` [compound 61, 9-(benzenesulfonyl)-3-chloro-6-(2′-phenylethyl)-9H-pyrido[2,3-b]indole]: the melting point fell in the range of 158 to 162 °C.

What is called IC50 is the concentration that gives 50% inhibition. The melting point is the temperature of the solid-liquid transition.
